Assay results reported in US6579878B1, “Pharmaceutical compositions and methods for use” (priority 2000, dated 2003).

Experiments:
Rat brain synaptosomes = assay: Neurotransmitter release from brain synaptosomes; format: biochemical; settings: in the presence of 10 uM ligand; percentage of release obtained with 10 uM (S)-(-)-nicotine or 300 uM TMA
Method: Neurotransmitter release was measured using techniques similar to those previously published (Bencherif M, et al.: JPET 279: 1413-1421,1996).
Rat brain synaptosomes were prepared as follows: Female Sprague Dawley rats (100-200 g) were killed by decapitation after anesthesia with 70% CO2. Brains are dissected, and hippocampus, striatum, and thalamus isolated, and homogenized in 0.32 M sucrose containing 5 mM HEPES pH 7.4 using a glass/glass homogenizer. The tissue was then centrifuged for 1000×g for 10 minutes and the pellet discarded. The supernatant was centrifuged at 12000×g for 20 minutes. The resultant pellet was re-suspended in perfusion buffer (128 mM NaCl, 1.2 mM KH2PO4, 2.4 mM KCl, 3.2 mM CaCl2, 1.2 mM MgSO4, 25 mM HEPES, 1 mM Ascorbic acid, 0.01 mM pargyline HCl and 10 mM glucose pH 7.4) and centrifuged for 15 minutes at 25000×g. The final pellet was resuspended in perfusion buffer and placed in a water bath (37° C.) for 10 minutes. […] The perfusate was collected directly into scintillation vials and released radioactivity was quantified using conventional liquid scintillation techniques. Release of neurotransmitter was determined in the presence of 10 uM of various ligands and was expressed as a percentage of release obtained with a concentration of 10 uM (S)-(−)-nicotine or 300 uM TMA resulting in maximal effects.

[1] = biological target: muscle-type nicotinic acetylcholine receptors (Homo sapiens, UniProt P02708+P07510+Q07001); assay: Determination of interaction with muscle receptors; format: cell-based; settings: percentage of the maximal activation induced by (S)-(-)-nicotine
muscle-type nicotinic acetylcholine receptors, sequence (P02708 21-457): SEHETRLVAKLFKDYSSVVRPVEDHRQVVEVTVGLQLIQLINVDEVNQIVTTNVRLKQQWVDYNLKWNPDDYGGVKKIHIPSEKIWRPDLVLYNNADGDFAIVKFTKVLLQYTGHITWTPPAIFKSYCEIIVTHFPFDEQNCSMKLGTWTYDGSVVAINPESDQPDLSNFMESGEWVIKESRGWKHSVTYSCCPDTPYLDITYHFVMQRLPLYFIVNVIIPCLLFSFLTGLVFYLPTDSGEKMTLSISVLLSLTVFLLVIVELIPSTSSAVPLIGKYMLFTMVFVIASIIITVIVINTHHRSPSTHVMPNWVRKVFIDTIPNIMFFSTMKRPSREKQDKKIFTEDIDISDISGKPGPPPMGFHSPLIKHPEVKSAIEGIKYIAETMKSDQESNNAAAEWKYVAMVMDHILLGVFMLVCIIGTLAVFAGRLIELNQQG
muscle-type nicotinic acetylcholine receptors, sequence (P11230 24-501 partner): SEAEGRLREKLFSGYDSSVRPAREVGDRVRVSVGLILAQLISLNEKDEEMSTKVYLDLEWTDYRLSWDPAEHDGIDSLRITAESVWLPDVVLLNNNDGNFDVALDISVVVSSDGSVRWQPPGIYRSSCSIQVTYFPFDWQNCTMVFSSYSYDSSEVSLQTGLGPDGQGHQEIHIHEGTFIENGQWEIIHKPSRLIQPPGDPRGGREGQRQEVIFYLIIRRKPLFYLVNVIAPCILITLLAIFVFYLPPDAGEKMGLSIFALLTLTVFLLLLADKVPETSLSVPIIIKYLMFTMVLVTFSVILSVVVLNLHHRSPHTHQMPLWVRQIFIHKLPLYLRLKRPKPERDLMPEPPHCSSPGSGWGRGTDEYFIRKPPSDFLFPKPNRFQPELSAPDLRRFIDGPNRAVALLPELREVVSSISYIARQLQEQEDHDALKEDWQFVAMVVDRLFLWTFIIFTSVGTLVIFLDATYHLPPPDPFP
muscle-type nicotinic acetylcholine receptors, sequence (Q07001 22-517): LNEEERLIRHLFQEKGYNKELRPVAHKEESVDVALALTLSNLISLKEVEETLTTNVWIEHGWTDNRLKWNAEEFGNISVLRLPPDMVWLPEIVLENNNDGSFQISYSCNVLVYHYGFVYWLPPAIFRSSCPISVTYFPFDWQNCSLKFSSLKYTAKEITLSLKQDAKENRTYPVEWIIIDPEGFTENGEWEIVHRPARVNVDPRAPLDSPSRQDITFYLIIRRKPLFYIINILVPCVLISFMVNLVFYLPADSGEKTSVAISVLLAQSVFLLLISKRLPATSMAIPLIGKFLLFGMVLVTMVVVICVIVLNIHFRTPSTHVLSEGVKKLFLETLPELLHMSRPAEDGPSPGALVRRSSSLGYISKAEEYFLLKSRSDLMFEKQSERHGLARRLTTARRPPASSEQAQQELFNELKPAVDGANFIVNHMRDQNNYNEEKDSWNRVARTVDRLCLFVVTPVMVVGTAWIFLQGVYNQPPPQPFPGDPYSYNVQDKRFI
muscle-type nicotinic acetylcholine receptors, sequence (P07510 23-517): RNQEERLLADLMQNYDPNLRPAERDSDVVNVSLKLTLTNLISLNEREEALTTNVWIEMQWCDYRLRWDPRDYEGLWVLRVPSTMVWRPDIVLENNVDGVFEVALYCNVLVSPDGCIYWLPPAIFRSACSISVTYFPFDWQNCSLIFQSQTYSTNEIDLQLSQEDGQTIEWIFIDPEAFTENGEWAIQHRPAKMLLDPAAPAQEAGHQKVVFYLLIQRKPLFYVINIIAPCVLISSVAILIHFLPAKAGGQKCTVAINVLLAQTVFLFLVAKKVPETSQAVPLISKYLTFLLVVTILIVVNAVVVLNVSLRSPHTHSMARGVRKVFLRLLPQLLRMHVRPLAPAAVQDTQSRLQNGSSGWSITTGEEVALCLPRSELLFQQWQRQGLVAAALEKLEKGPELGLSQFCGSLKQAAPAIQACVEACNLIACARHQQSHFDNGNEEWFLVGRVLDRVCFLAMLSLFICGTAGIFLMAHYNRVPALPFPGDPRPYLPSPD
Method: (§1) The determination of the interaction of the compounds with muscle receptors was carried out in accordance with the techniques described in U.S. Pat. No. 5,597,919 to Dull et al. The maximal activation for individual compounds (Emax) was determined as a percentage of the maximal activation induced by (S)-(−)-nicotine. Reported Emax values represent the amount released relative to (S)-(−)-nicotine on a percentage basis. […] Such preferable compounds have the capability to activate human CNS receptors without activating muscle-type nicotinic acetylcholine receptors. Thus, there is provided a therapeutic window for utilization in the treatment of CNS disorders.

[2] = system: ganglia-type nicotinic acetylcholine receptors; assay: Determination of interaction with ganglion receptors; format: cell-based; settings: percentage of the maximal activation induced by (S)-(-)-nicotine
Method: as §1, with “ganglionic” for “muscle”, “ganglia-type” for “muscle-type”

## c1cncc(CC2CC3CCC2N3)c1 (stereo not drawn) [Example 1, 2-((3-pyridyl)methyl)-7-azabicyclo[2.2.1]heptane]
Rat brain synaptosomes
  Emax, neurotransmitter release: 15%
[1]
  Emax: 52%
[2]
  Emax, maximal activation at ganglia-type receptors: 48%
